Data taken from patent US10611740B2, “Aryl dihydro-2H-benzo[b][1,4]oxazine sulfonamide and related compounds for use as agonists of RORγ and the treatment of disease” (Lycera Corporation, priority 2015, dated 2020).

How the values were obtained:
RORγ-LBD = molecular target: T1, RORγ-LBD (Homo sapiens, UniProt P51449); experiment: RORγ-Ligand Binding Domain (LBD) TR-FRET Assay; format: biochemical;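 as to TR-FRET Assay Max Response: 665/615 nm ratio relative to signal without ursolic acid or compound set at 100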
T1 construct: made in house; host or cells: SF9 cells (baculovirus)
T1 sequence (P51449 269-508 limits assumed): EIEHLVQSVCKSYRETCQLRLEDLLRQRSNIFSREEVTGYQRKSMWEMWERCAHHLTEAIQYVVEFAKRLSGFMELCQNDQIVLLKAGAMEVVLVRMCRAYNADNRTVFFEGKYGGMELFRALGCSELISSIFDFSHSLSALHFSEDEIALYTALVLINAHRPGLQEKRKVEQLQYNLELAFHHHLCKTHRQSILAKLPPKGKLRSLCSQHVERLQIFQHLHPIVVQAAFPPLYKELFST
Procedure, shortened: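 Lysate from SF9 cells expressing His-RORγ-LBD is diluted to about 3 nM final in 50 mM Tris pH 7.0 assay buffer. A biotin-tagged SRC1 LXXLL peptide goes in at 200 nM final, plus ursolic acid at 2 μM final. Test compounds carry 1% DMSO final; signal read by TR-FRET.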

Gal4-RORγ-LBD = molecular target: T2, Gal4-RORγ-LBD (Homo sapiens, UniProt P51449); experiment: Gal4-RORγ Luciferase Reporter Assay in HEK-293T Cells; format: cell-based; conditions: HEK-293 cells, luciferase reporter, with 2 μM ursolic acid
T2 construct: expressed in transfected cells; host or cells: HEK-293 cells (pcDNA3.1neo plasmid)
T2 sequence (P51449 269-508 limits assumed): T1 sequence (P51449 269-508 limits assumed)
Procedure, shortened: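 In transfected HEK-293 cells (Gal4-RORγ-LBD, Gal4-luciferase), test agents with 2 μM ursolic acid were incubated overnight at 37 °C before luminescent detection. Values are relative to the ursolic-acid-free, compound-free signal (100).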

| Compound | EC50 (RORγ-LBD) [nM] | TR-FRET Assay Max Response (RORγ-LBD) | EC50 (Gal4-RORγ-LBD) [nM] | Gal4-RORγ Assay Max Response (Gal4-RORγ-LBD) |
| --- | --- | --- | --- | --- |
| O=C(O)CC[C@H]1CN(S(=O)(=O)c2cccc(C(F)(F)F)c2)c2cc(-c3c(F)cccc3Cl)ccc2O1 [Compound 2AG, (S)-3-(6-(2-chloro-6-fluoro-phenyl)-4-((3-(trifluoromethyl)-phenyl)sulfonyl)-3,4-dihydro-2H-benzo[b][1,4]oxazin-2-yl)propanoic acid] | < 500 | **** (The symbol “****” indicates a value greater than 200) | < 500 | *** (The symbol “***” indicates a value in the range of greater than 150 to 200) |
| O=C(O)CC[C@H]1CN(S(=O)(=O)c2cccc(C(F)(F)F)c2)c2cc(-c3cccc(F)c3Cl)ccc2O1 [Compound 2AH, (S)-3-(6-(2-chloro-3-fluoro-phenyl)-4-((3-(trifluoromethyl)-phenyl)sulfonyl)-3,4-dihydro-2H-benzo[b][1,4]oxazin-2-yl)propanoic acid] | < 500 | **** (The symbol “****” indicates a value greater than 200) | < 500 | *** (The symbol “***” indicates a value in the range of greater than 150 to 200) |
| O=C(O)CC[C@H]1CN(S(=O)(=O)c2cccc(C(F)(F)F)c2)c2cc(-c3cc(F)ccc3Cl)ccc2O1 [Compound 2AI, (S)-3-(6-(2-chloro-5-fluoro-phenyl)-4-((3-(trifluoromethyl)-phenyl)sulfonyl)-3,4-dihydro-2H-benzo[b][1,4]oxazin-2-yl)propanoic acid] | < 500 | **** (The symbol “****” indicates a value greater than 200) | – | ** (The symbol “**” indicates a value in the range of greater than 90 to 150) |
| CC(C)c1ccccc1-c1ccc2c(c1)N(S(=O)(=O)c1cccc(C(F)(F)F)c1)C[C@H](CCC(=O)O)O2 [Compound 2AJ, (S)-3-(6-(2-isopropylphenyl)-4-((3-(trifluoromethyl)phenyl)-sulfonyl)-3,4-dihydro-2H-benzo[b][1,4]oxazin-2-yl)propanoic acid] | < 500 | **** (The symbol “****” indicates a value greater than 200) | < 500 | ** (The symbol “**” indicates a value in the range of greater than 90 to 150) |
| O=C(O)CC[C@H]1CN(S(=O)(=O)c2cccc(C(F)(F)F)c2)c2cc(-c3cncc(C(F)(F)F)c3)ccc2O1 [Compound 2AK, (S)-3-(4-((3-(trifluoromethyl)-phenyl)sulfonyl)-6-(5-(trifluoromethyl)pyridin-3-yl)-3,4-dihydro-2H-benzo[b][1,4]oxazin-2-yl)propanoic acid] | < 500 | **** (The symbol “****” indicates a value greater than 200) | < 500 | ** (The symbol “**” indicates a value in the range of greater than 90 to 150) |
| O=C(O)CC[C@H]1CN(S(=O)(=O)c2cccc(C(F)(F)F)c2)c2cc(-c3cccc(Cl)c3Cl)ccc2O1 [Compound 2AL, (S)-3-(6-(2,3-dichlorophenyl)-4-((3-(trifluoromethyl)phenyl)-sulfonyl)-3,4-dihydro-2H-benzo[b][1,4]oxazin-2-yl)propanoic acid] | < 500 | **** (The symbol “****” indicates a value greater than 200) | < 500 | *** (The symbol “***” indicates a value in the range of greater than 150 to 200) |
| O=C(O)CC[C@H]1CN(S(=O)(=O)c2cccc(C(F)(F)F)c2)c2cc(-c3cc(Cl)ccc3Cl)ccc2O1 [Compound 2AM, (S)-3-(6-(2,5-dichlorophenyl)-4-((3-(trifluoromethyl)phenyl)-sulfonyl)-3,4-dihydro-2H-benzo[b][1,4]oxazin-2-yl)propanoic acid] | < 500 | – | < 500 | – |
| COc1ccc(-c2ccc3c(c2)N(S(=O)(=O)c2cccc(C(F)(F)F)c2)C[C@H](CCC(=O)O)O3)cc1Cl [Compound 2AN, (S)-3-(6-(3-chloro-4-methoxyphenyl)-4-((3-(trifluoromethyl)phenyl)-sulfonyl)-3,4-dihydro-2H-benzo[b][1,4]oxazin-2-yl)propanoic acid] | < 500 | **** (The symbol “****” indicates a value greater than 200) | < 500 | ** (The symbol “**” indicates a value in the range of greater than 90 to 150) |
| COc1cc(Cl)cc(-c2ccc3c(c2)N(S(=O)(=O)c2cccc(C(F)(F)F)c2)C[C@H](CCC(=O)O)O3)c1 [Compound 2AO, (S)-3-(6-(3-chloro-5-methoxyphenyl)-4-((3-(trifluoromethyl)phenyl)-sulfonyl)-3,4-dihydro-2H-benzo[b][1,4]oxazin-2-yl)propanoic acid] | < 500 | **** (The symbol “****” indicates a value greater than 200) | < 500 | *** (The symbol “***” indicates a value in the range of greater than 150 to 200) |
| O=C(O)CC[C@H]1CN(S(=O)(=O)c2cccc(C(F)(F)F)c2)c2cc(-c3cccc(OC(F)(F)F)c3)ccc2O1 [Compound 2AP, (S)-3-(6-(3-(trifluoromethoxy)-phenyl)-4-((3-(trifluoromethyl)-phenyl)sulfonyl)-3,4-dihydro-2H-benzo[b][1,4]oxazin-2-yl)propanoic acid] | < 500 | **** (The symbol “****” indicates a value greater than 200) | < 500 | ** (The symbol “**” indicates a value in the range of greater than 90 to 150) |
| Cn1cc(-c2ccc3c(c2)N(S(=O)(=O)c2cccc(C(F)(F)F)c2)C[C@H](CCC(=O)O)O3)cn1 [Compound 2AQ, (S)-3-(6-(1-methyl-1H-pyrazol-4-yl)-4-((3-(trifluoromethyl)-phenyl)sulfonyl)-3,4-dihydro-2H-benzo[b][1,4]oxazin-2-yl)propanoic acid] | 500 to 5000 | **** (The symbol “****” indicates a value greater than 200) | 500 to 5000 | * (The symbol “*” indicates a value in the range of 25 to 90) |
| Cn1nccc1-c1ccc2c(c1)N(S(=O)(=O)c1cccc(C(F)(F)F)c1)C[C@H](CCC(=O)O)O2 [Compound 2AR, (S)-3-(6-(1-methyl-1H-pyrazol-5-yl)-4-((3-(trifluoromethyl)-phenyl)sulfonyl)-3,4-dihydro-2H-benzo[b][1,4]oxazin-2-yl)propanoic acid] | 500 to 5000 | * (The symbol “*” indicates a value in the range of 25 to 90) | > 10000 | – |
| CCOc1cccc(-c2ccc3c(c2)N(S(=O)(=O)c2cccc(C(F)(F)F)c2)C[C@H](CCC(=O)O)O3)c1 [Compound 2AS, (S)-3-(6-(3-ethoxyphenyl)-4-((3-(trifluoromethyl)phenyl)-sulfonyl)-3,4-dihydro-2H-benzo[b][1,4]-oxazin-2-yl)propanoic acid] | < 500 | **** (The symbol “****” indicates a value greater than 200) | 500 to 5000 | ** (The symbol “**” indicates a value in the range of greater than 90 to 150) |
| N#Cc1cccc(-c2ccc3c(c2)N(S(=O)(=O)c2cccc(C(F)(F)F)c2)C[C@H](CCC(=O)O)O3)c1 [Compound 2AT, (S)-3-(6-(3-cyanophenyl)-4-((3-(trifluoromethyl)phenyl)-sulfonyl)-3,4-dihydro-2H-benzo[b][1,4]oxazin-2-yl)propanoic acid] | < 500 | **** (The symbol “****” indicates a value greater than 200) | 500 to 5000 | ** (The symbol “**” indicates a value in the range of greater than 90 to 150) |
| O=C(O)CC[C@H]1CN(S(=O)(=O)c2cccc(C(F)(F)F)c2)c2cc(-c3cccc(O)c3)ccc2O1 [Compound 2AU, (S)-3-(6-(3-hydroxyphenyl)-4-((3-(trifluoromethyl)phenyl)-sulfonyl)-3,4-dihydro-2H-benzo[b][1,4]oxazin-2-yl)propanoic acid] | < 500 | *** (The symbol “***” indicates a value in the range of greater than 150 to 200) | 500 to 5000 | * (The symbol “*” indicates a value in the range of 25 to 90) |
| CC(C)Oc1cccc(-c2ccc3c(c2)N(S(=O)(=O)c2cccc(C(F)(F)F)c2)C[C@H](CCC(=O)O)O3)c1 [Compound 2AV, (S)-3-(6-(3-isopropoxyphenyl)-4-((3-(trifluoromethyl)phenyl)-sulfonyl)-3,4-dihydro-2H-benzo[b][1,4]oxazin-2-yl)propanoic acid] | < 500 | **** (The symbol “****” indicates a value greater than 200) | 500 to 5000 | * (The symbol “*” indicates a value in the range of 25 to 90) |
| O=C(O)CC[C@H]1CN(S(=O)(=O)c2cccc(C(F)(F)F)c2)c2cc(-c3ccccc3O)ccc2O1 [Compound 2AW, (S)-3-(6-(2-hydroxyphenyl)-4-((3-(trifluoromethyl)phenyl)-sulfonyl)-3,4-dihydro-2H-benzo[b][1,4]oxazin-2-yl)propanoic acid] | < 500 | **** (The symbol “****” indicates a value greater than 200) | 500 to 5000 | ** (The symbol “**” indicates a value in the range of greater than 90 to 150) |
